Experimental data reported in patent US20230416836A1, “METHOD FOR PREDICTING RESPONSIVENESS TO PLK1 INHIBITION” (National University of Singapore, priority 2020, published 2023).
Entries after “also recorded” stand apart in the source; their conditions may differ.

Experiments:
MCF10A ARID1A KO cells = assay: cell survival screen with clinically applicable kinase inhibitors; type: cell-based; details: MCF10A system, ARID1A KO vs WT, ratios of Z-scores
Excerpt: FIG. 2: Generation of ARID1A KO cells in (A) GES1, (B) MCF10A, (C) OVCAR3, (D) Ratios of Z-scores, showing hits from preliminary FDA approved kinase inhibitor screen.
ARID1A Knockout (KO) cell lines were generated using CRISPR-Cas9 gene editing in multiple cellular contexts where ARID1A is lost-Gastric (GES1), Breast (MCF10A), and Ovarian (OVCAR3) (FIG. 2 A-C).

[1] = tested on: GES1 ARID1A WT and KO cells; assay: Cell titre blue assay in GES1 ARID1A WT and KO cells; type: cell-based; details: GES1 ARID1A WT vs KO
Excerpt: (§1) This synthetic lethal interaction was validated using Volasertib in multiple isogenic ARID1A WT and KO cell lines, using cell proliferation and colony formation assays (FIG. 3 A-E).

[2] = tested on: MCF10A ARID1A WT and KO cells; assay: Cell titre blue assay in MCF10A ARID1A WT and KO cells; type: cell-based; details: MCF10A ARID1A WT vs KO
Excerpt: as §1

[3] = tested on: GES1 ARID1A-WT and KO cells; assay: colony formation assay in GES1 ARID1A-WT and KO cells; type: cell-based; details: GES1 ARID1A-WT vs KO
Excerpt: as §1

[4] = tested on: OVCAR3 ARID1A WT and KO cells; assay: Cell proliferation assays in OVCAR3 cells; type: cell-based; details: OVCAR3 ARID1A WT vs KO
Excerpt: as §1

[5] = tested on: OVCAR3-ARID1A KO xenografts; assay: mouse xenograft experiments with OVCAR3-ARID1A WT or KO cells; type: in vivo; details: Nude (SCID) mice, 15 mg/kg body weight once per week for 4 weeks
Experimental: Nude (SCID) mice received sub-cutaneous injections of OVCAR3-ARID1A WT or KO cells. Tumors were visible 10 days post injection, after which the animals were treated with Volasertib (15 mg/kg body weight) or vehicle once per week for 4 weeks. Body mass and tumor volumes were recorded twice per week. Mice were sacrificed at the end of 4 weeks of treatment and tumors were isolated and imaged, (B) Body mass measurements of mice measured twice per week, (C) Tumor volume measurements of mice measured twice per week, p<0.05, student's t-test, (D) Images of OVCAR3-ARID1A WT/KO tumors isolated from mice after sacrifice, (E) Dot plot of tumor area from D showing changes in tumor area in OVCAR3-ARID1A KO vs OVCAR3-ARID1A KO+volasertib treatment. Tumor area was calculated from the images in image J using the ruler to set scale and applying free hand tool to measure the tumor area.
as §1

[6] = tested on: GES1 ARID1A WT and KO cells; assay: mitochondrial depolarization measured using JC-1; type: cell-based; details: post treatment
Excerpt: (§2) HSC70 was used as loading control.

[7] = tested on: GES1 ARID1A-WT and KO cells; assay: Annexin-V staining (apoptosis); type: cell-based
Excerpt: as §2

GES1 cells = assay: Western blots of cleaved PARP in GES1 cells; type: cell-based; details: GES1 whole cell lysates, indicated time points
Excerpt: as §2

OVCAR3 cells = assay: Western blots of cleaved PARP in OVCAR3 cells; type: cell-based; details: OVCAR3 whole cell lysates, indicated time points
Excerpt: as §2

[8] = tested on: GES1-ARID1A isogenic cell lines; assay: metabolomics by 1D NMR; type: cell-based; details: GES1-ARID1A WT and KO
Excerpt: (B) Heat map of important metabolites up/down regulated in GES1-ARID1A WT and KO with and without volasertib treatment, as measured by 1D NMR.
In addition, ARID1A loss causes a dramatic alteration in transcriptome leading to up or down regulation of many important biological pathways (FIG. 6).

cancer = details: Phase II clinical trials; cited from earlier work

| SMILES | sensitivity of cells with loss of ARID1A in cell survival screen (MCF10A ARID1A KO cells) | synthetic lethality, cell titre blue assay [1] | synthetic lethality, cell titre blue assay [2] | synthetic lethality, colony formation assay [3] | synthetic lethality, cell proliferation assays [4] | anti-tumor activity on xenografts (tumor volume, tumor area) [5] | anti-tumor activity on xenografts (tumor volume, tumor area) ([5]; 15 mg/kg) | mitochondrial depolarization (JC-1) [6] | apoptosis and cell killing ([7]; ARID1A KO cells) | apoptosis, Annexin-V positive cells ([7]; GES1 ARID1A-KO cells, post treatment) | cleaved PARP accumulation (GES1 cells) | cleaved PARP accumulation (OVCAR3 cells) | changes in metabolic intermediates / metabolomics [8] | clinical result as monotherapy (cancer) |
| --- | --- | --- | --- | --- | --- | --- | --- | --- | --- | --- | --- | --- | --- | --- |
| COc1cc(C(=O)NC2CCN(C)CC2)c(F)cc1Nc1ncc2c(n1)N(C1CCCC1)CC(F)(F)C(=O)N2C [TAK960] | preferentially sensitivity | – | – | – | – | – | – | – | – | – | – | – | – | – |
| CC[C@@H]1C(=O)N(C)c2cnc(Nc3ccc(C(=O)N[C@H]4CC[C@H](N5CCN(CC6CC6)CC5)CC4)cc3OC)nc2N1C(C)C [Volasertib] | – | synthetic lethality between ARID1A loss and Volasertib | synthetic lethality between ARID1A loss and Volasertib | synthetic lethality between ARID1A loss and Volasertib | synthetic lethality between ARID1A loss and Volasertib | Anti-tumor activity | synthetically lethal relationship was also demonstrated | markedly increases mitochondrial depolarization; also recorded: increased depolarization post Volasertib treatment in a time dependent manner | selective cell killing in ARID1A KO cells | further increase post Volasertib treatment | increased accumulation of cleaved PARP | increased accumulation of cleaved PARP | profound changes in the metabolomics; also recorded: exacerbated upon volasertib treatment | encouraging results as monotherapy |
